# According to patent publication US20230087078A1, “COMPOSITIONS AND METHODS FOR THE TREATMENT OF PANCREATIC CANCER” (Washington University, priority 2020, published 2023):
# Key:
# [1] = test system: TNFα mRNA expression; experiment: qPCR of cytokine expression after SN38, Pa01c; type: cell-based, human; conditions: for SN38-induced induction of TNFα: inhibitor 2 μM before SN38
# Procedure: (§1) FIG. 3D contains graphs summarizing the results of qPCR for TNFα, TNFβ, TGFβ, IL-1α, and IL-1β in Mia paca-2 (right) and Pa01c (left) cells treated with control or SN38 10 μM for 16 hours. P values from two-away ANOVA with Dunnett's multiple comparison test and error bars are mean+SEM. ***P<0.0002, ****P<0.0001.
# FIG. 3F is a graph summarizing the results of qPCR showing TNFα expression in Pa01c cells following treatment with SN38 10 μM alone for 16 hours, or in combination with TAKli 2 μM or IKKi 2 μM for 24 hours prior to treatment with SN38 10 μM for 16 hours. P values from two-away ANOVA with Dunnett's multiple comparison test and error bars are mean+SEM. *P<0.0247, **P<0.0025.
# (§2) RNAzol RT (Sigma) was used to isolate total RNA. cDNA was made with High Capacity cDNA reverse transcription kit (Thermo Fisher Scientific, 4368814). qPCR was performed with SYBR-Green reagent (Applied Biosciences). All experiments were performed in biological duplicates or triplicates (n=2, 3).
# (§3) Because TAK1 is known to be a downstream kinase of TNF, TGFβ, and IL-1 receptors, a candidate approach was used to survey expression of TNFα/β, TGFβ, and IL-1α/β.
# [2] = test system: p-p38, p-MK2, and p-Hsp27; experiment: Immunoblot of SN38-induced p-p38, p-MK2, p-Hsp27 and apoptosis with upstream kinase inhibitors; type: cell-based, human; conditions: inhibitor in combination with SN38
# Procedure: FIG. 3A contains immunoblot images showing p-p38, p-MK2, and p-Hsp27 activation in MIA paca-2 and Pa01c cells treated with SN38 10 μM for 16 hours alone or with IRAK4 inhibitor 4 μM, HCQ 20 μM, ATM inhibitor 20 μM, ATR inhibitor 20 μM, or TAK1 inhibitor 2 μM.
# FIG. 3B contains immunoblot images of MIA paca-2 and Pa01c cells treated with SN38 10 μM alone for 16 hours or in combination with TAK1 inhibitor 2 μM for 16 hours.
# To investigated the mechanism by which DNA damage activates MK2 and Hsp27, PDAC cells were treated with SN38 alone or in combination with inhibitors of IRAK4 (PF06650833), TLR9 (hydroxychloroquine, or HCQ), ATM (KU55933), ATR (VE821), and TAK1 (5z-7-oxozeanol).
# [3] = test system: p-Hsp27; experiment: Immunoblot of p-Hsp27 with MK2 inhibitors (SN38 or UV); type: cell-based, human; conditions: at baseline and following SN38 treatment
# Procedure: FIG. 2E contains immunoblot images showing PARP cleavage of MIA paca-2 and Pa01c cells treated as in FIG. 1D.
# FIG. 2H contains immunoblot images of p-p38, p-MK2, and p-Hsp27 from MIA paca-2 and Pa01c cells treated with 40 J/m2 of ultraviolet light (UV) alone or with MK2 inhibitor PF-3644022.
# FIG. 2I contains immunoblot images of p-MK2 and p-Hsp27 from Pa01c cells treated with 40 J/m2 UV light, alone or with MK2 inhibitor ATI-450.
# Western blotting was performed according to standard procedures. Cells grown in culture were washed twice in ice-cold 1×PBS and lysed in ice-cold RIPA buffer ([…]) containing 1× protease inhibitor (Sigma), NaVO3, Na pyrophosphate, and NaF. Protein lysates were quantified by Bradford assay and suspended in 6×SDS sample buffer, followed by boiling for 5 min at 95 C. 40 ug of protein lysate was resolved on SDS-PAGE and blotted on nitrocellulose membrane. Antibodies used included p38 MAPK (CST 8690S), p38 MAPK T180/Y182 (CST 9215S), MK2 total (CST 12155S), MK2 T334 (CST 3041S), MK2 T222 (3316S), Hsp27 total (CST 2042S), Hsp27 phos S82 (9709S), ? H2Ax (CST 9718S), JNK T183/Y185 (CST 4668), GSK3 beta phos S9 (CST 5558), ATR phos T1989 (CST 58014), ATM phos 51981 (CST 4526), AMPKα1 phos T172 (CST 2335T), and GAPDH (sc-47724). […]
# [4] = test system: autophagy markers; experiment: Autophagy markers (western blot, LC3 reporter) after SN38 with or without MK2 inhibitors; type: cell-based, human; conditions: for SN38-induced p-Beclin1 and LC3-II: MK2 inhibitor with SN38
# [5] = test system: MIA paca-2 cells; experiment: FACS Annexin V and PI staining, MK2 inhibitor with or without SN38; type: cell-based, human; conditions: for apoptosis: MK2 inhibitor combined with SN38
# Excerpt: P values from one-way ANOVA with Dunnett's multiple comparison test and error bars are mean+SEM. **P<0.0021, ****P<0.0001.
# [6] = patients with rheumatoid arthritis; cited from earlier work
# [7] = test system: KPPC mice; experiment: Autochthonous KPPC model, survival and tumor analysis; type: in vivo
# Procedure: (§4) Tumors were formalin-fixed, paraffin-embedded, sectioned, and stained with hematoxylin and eosin (H&E). Immunohistochemistry (IHC) staining was performed using the following antibodies: p-Hsp27 S82 (CST cat #9709S), p-MK2 T334 (CST cat #3041S), p-p38 T180/Y182 (CST cat #9215S). Ten 200× or 400× power fields were analyzed per tumor independently by two individuals, and data were presented as mean+SEM of collated data. IHC sections were interpreted independently by two individual reviewers and representative data agreeable to all members were presented.
# (§5) KPPC (p48-Cre/p53Flox/Flox LSL-KRASG12D) mice were created as described in previous publications. Treatment began six weeks after birth when tumors spontaneously form in vivo. FOLFIFINOX treatment was given by weekly intraperitoneal (I.P.) injection of 5-FU 25 mg/kg, irinotecan 17.5 mg/kg, and oxaliplatin 3.3 mg/kg. ATI-450 treatment was given as drug-impregnated chow, ad libitum, starting six weeks after birth; when given in combination with chemotherapy, ATI-450 chow was begun the day prior to initiation of chemotherapy.
# All mice were treated beginning at 6 weeks of age until humane endpoints were reached.
# [8] = test system: KPPC mice; experiment: KPPC mice, ATI-450 chow for two weeks, histologic analysis of pancreata; type: in vivo
# Procedure: as §4, §5
# To complement the human xenograft models, which lacked the desmoplastic tumor microenvironment and intact immune system essential for PDAC development, an autochthonous KPPC (p48-Cre; p53flox/flox; LSL-KRASG12D) mouse model was treated and observed. KPPC mice were treated with vehicle or ATI-450 ad libitum in chow starting from 6 weeks-old of age when foci of invasive PDAC start to appear. After two weeks of treatment, all mice were euthanized and their pancreata were subjected to histologic analysis.
# [9] = test system: PDAC cells; experiment: Apoptosis after SN38 with autophagy inhibition (HCQ, Beclin-1 ablation); type: cell-based, human
# Excerpt: FIG. 4D contains immunoblot images of MIA paca-2 and Pa01c cells following treatment with SN38, HCQ, or the combination. P values from two-way ANOVA with Sidak's multiple comparison test and error bars are mean+SEM. ***P=0.0009, *P=0.035.
# FIG. 4F contains immunoblot images of MIA paca-2 control cells or Beclin 1 (BECN1) knockout treated with SN38, ATI-450, or the combination.
# FIG. 4G contains scatter plots (left) and a graph summarizing quantification of a FACS analysis of MIA paca-2 control cells or Beclin 1 knockout cells treated with control (DMSO) or SN38 10 μM for 24 hours; graphic quantification of annexin V positive cells on the right.
# [10] = test system: PDAC lines; experiment: Recombinant TNFα treatment of PDAC lines: p-Hsp27, PARP cleavage, Annexin V; type: cell-based, human; conditions: for TNFα-induced p-Hsp27 / apoptosis: inhibitor plus TNFα
# [11] = test system: non-pancreatic cancer cell lines (colon, gastric, breast); experiment: Apoptosis of non-pancreatic cancer cell lines with SN38 and ATI-450; type: cell-based; conditions: combination SN38 and ATI-450
# [12] = test system: TNFα protein; experiment: TNFα ELISA of Pa01c supernatant; type: cell-based, human; conditions: Pa01c cells, SN38 10 μM for 16 hours
# Procedure: FIG. 3E is a graph summarizing TNFα ELISA of Pa01c cells treated with control or SN38 10 μM for 16 hours overnight. P values from one-way ANOVA with Dunnett's multiple comparison test and error bars are mean+SEM. *P<0.0332.
# as §3
# [13] = test system: TNFα mRNA expression; experiment: qPCR of cytokine expression after SN38, MIA Paca-2; type: cell-based, human; conditions: MIA Paca-2 cells, SN38 10 μM for 16 hours
# Procedure: as §1, §2, §3
# [14] = test system: p-Hsp27; experiment: Immunoblot of p-MK2 and p-Hsp27 after individual chemotherapy agents; type: cell-based, human; conditions: for induction of p-MK2 and p-Hsp27: PDAC lines tested
# Procedure: Western blotting was performed according to standard procedures. Cells grown in culture were washed twice in ice-cold 1×PBS and lysed in ice-cold RIPA buffer (10 nM Tris pH 7.4, 50 nM NaCl, 0.05% SDS, 0.05% Triton X-100, 0.5% sodium deoxycholate, and 10 nM EDTA) containing 1× protease inhibitor (Sigma), NaVO3, Na pyrophosphate, and NaF. Protein lysates were quantified by Bradford assay and suspended in 6×SDS sample buffer, followed by boiling for 5 min at 95 C. 40 ug of protein lysate was resolved on SDS-PAGE and blotted on nitrocellulose membrane. Antibodies used included p38 MAPK (CST 8690S), p38 MAPK T180/Y182 (CST 9215S), MK2 total (CST 12155S), MK2 T334 (CST 3041S), MK2 T222 (3316S), Hsp27 total (CST 2042S), Hsp27 phos S82 (9709S), ? H2Ax (CST 9718S), JNK T183/Y185 (CST 4668), GSK3 beta phos S9 (CST 5558), ATR phos T1989 (CST 58014), ATM phos 51981 (CST 4526), AMPKα1 phos T172 (CST 2335T), and GAPDH (sc-47724). Blots were imaged using chemiluminescent substrate (Thermo Scientific).
compound,measurement,setting,value
"COc1cc(O)c2c(c1)/C=C/C[C@H](O)[C@H](O)C(=O)/C=C\C[C@H](C)OC2=O [5z-7-oxozeanol, (5Z)-7-Oxozeaenol]",SN38-induced induction of TNFα,[1]; Pa01c cells,abrogated
same,"SN38-induced p-p38, p-MK2, and p-Hsp27",[2],completely blocked
same,apoptotic effect of SN38,[2],potentiated
Cc1ccc(-c2ccc3c(ccc4sc5c(c43)NC[C@@H](C)NC5=O)n2)cn1 [PF-3644022],p-Hsp27,[3],abolished
same,SN38-induced p-Beclin1 and LC3-II,[4],robustly suppress
same,toxicity to PDAC cells,[5]; MK2 inhibitor alone,not toxic
same,apoptosis,[5],significantly increased apoptosis
Cc1cnc(-c2ccnc(C(C)(C)O)n2)cc1-n1c(C)cc(OCc2ncc(F)cc2F)c(Cl)c1=O [ATI-450],tolerability,[6],well-tolerated
same,p-Hsp27,[3],replicated
same,PDAC lesions,[7]; addition of ATI-450 to FOLFIRINOX,almost completely ablated
same,tumor histology (H&E),"[7]; mouse, in vivo",smaller but retained a significant fraction of overt PDAC
same,survival,[7]; treated from 6 weeks of age until humane endpoints,improved survival significantly greater than vehicle
same,"p-Hsp27 (IHC), in vivo on-target effect",[7]; tumor sections,completely suppressed
same,PDAC burden of pancreata,"[8]; ATI-450 in chow from 6 weeks of age, two weeks",significantly lower PDAC burdens
same,fractions of normal or early PanIN lesions,"[8]; ATI-450 in chow, two weeks",relatively higher fractions
same,tumor fibrosis by Sirius Red staining,"[8]; ATI-450 in chow, two weeks",significantly less fibrotic
same,progression of PDAC,[8]; single agent,significantly delayed
same,apoptosis,"[9]; Beclin-1-ablated cells, added to SN38",only marginally increased apoptosis
same,TNFα-induced p-Hsp27,[10],abrogated
same,apoptosis,[10],augmented apoptosis
same,SN38-induced p-Beclin1 and LC3-II,[4],robustly suppress
same,apoptosis,[5],replicated
same,apoptosis,[11],sensitized the cells to apoptosis
CC(C)(C)C(=O)N1N=CC[C@H]1c1ccccc1 [RIPK inhibitor],TNFα-induced p-Hsp27,[10],did not block p-Hsp27
same,apoptosis,[10],did not block p-Hsp27 or alter apoptosis
same,"SN38-induced p-p38, p-MK2, and p-Hsp27",[2],not blocked
CCN(CCO)CCCC(C)Nc1ccnc2cc(Cl)ccc12 (stereo not drawn) [hydroxychloroquine],apoptosis,[9]; PDAC cells treated with SN38 and HCQ,significantly higher levels of apoptosis
TNFα,apoptosis (PARP cleavage and Annexin V staining),[10]; recombinant TNFα alone,induced apoptosis
same,p-Hsp27,[10]; recombinant TNFα alone,upregulated
CCc1c2c(nc3ccc(O)cc13)-c1cc3c(c(=O)n1C2)COC(=O)[C@]3(O)CC [SN38],TNFα protein in supernatant,[12],increased TNFα protein
same,TNFα mRNA expression,[13],~30 fold
same,TNFβ expression,[1]; Pa01c cells following SN38,elevated
same,TNFα mRNA expression,"[1]; Pa01c cells, SN38 10 μM for 16 hours",~30 fold
same,activation of p-Hsp27,"[14]; MIA Paca-2 cells, vehicle, 5-FU, SN38 or oxaliplatin individually",most strongly activates Hsp27
same,induction of p-MK2 and p-Hsp27,[14],potently induced
same,LC3-GFP reporter expression,[4]; PDAC cells,significantly decreased
same,"autophagy markers: p-ULK1 (S555), p-AMPKα (T172), p-Beclin1 (S90), p62",[4]; western blots,markedly induced
Nc1ccn([C@@H]2O[C@H](CO)[C@@H](O)C2(F)F)c(=O)n1 [Gemcitabine],induction of p-MK2 and p-Hsp27,[14],much lower degree
O=C(Nc1cc(C(F)(F)F)cc(C(F)(F)F)c1)c1cc(Cl)ccc1O [IMD0354],SN38-induced induction of TNFα,[1]; Pa01c cells,abrogated
